From article PMC11112094, “MzmL, a novel marine derived N-acyl homoserine lactonase from Mesoflavibacter zeaxanthinifaciens that attenuates Pectobacterium carotovorum subsp. carotovorum virulence” (Frontiers in Microbiology, 2024)

System: T1, MzmL
T1 construct: full-length ORF (304 residues, predicted 16-residue signal peptide MKKLIILLITLSLFVA included in the clone), N-terminal His6 tag kept (pET-28a), E. coli BL21(DE3), Ni-NTA, ~35 kDa
Test: pH-indicator (bromothymol blue) assay of lactone hydrolysis, OD630, Michaelis-Menten fit
Type: biochemical, Mesoflavibacter zeaxanthinifaciens
Details: 2.5 mM MOPS pH 7.1; 25°C in methods, 28°C in table footnote; 5 nM enzyme; read-out: Km (mM)/Mean ± SD
Excerpt: pH-indicator (bromothymol blue) assay of lactone hydrolysis, OD630, Michaelis-Menten fit on MzmL

Compound	Km
CCCCCC(=O)N[C@H]1CCOC1=O [C6-HSL]	0.39 ± 0.11 mM
CCCC(=O)CC(=O)N[C@H]1CCOC1=O [3-oxo-C6-HSL]	0.08 ± 0.06 mM

More lines, now with the values ahead:

Km	Compound
0.04 ± 0.01 mM	CCCCCCCCCC(=O)N[C@H]1CCOC1=O [C10-HSL]
0.12 ± 0.03 mM	CCCCCCCC(=O)CC(=O)N[C@H]1CCOC1=O [3-oxo-C10-HSL]
0.46 ± 0.21 mM	CCCCCC(=O)CC(=O)N[C@H]1CCOC1=O [3-oxo-C8-HSL]
